Consider 43 molecules from patent EP2929883A1, “Pyrazole derivatives as dihydroorotate dehydrogenase (DHODH) inhibitors” (INSTITUT PASTEUR, priority 2014, dated 2015).

Converted amounts (≈) assume the structure as drawn.

In the test the test system is measles virus. The test is described as follows: microbe, parasite or virus in culture. As to conditions: Measles morbillivirus, 24 h.
`CC(C)Oc1nn(-c2ccc(C3CC3)cn2)cc1Sc1ccccc1` [example 105, 5-cyclopropyl-2-(3-isopropoxy-4-(phenylthio)-1H-pyrazol-1-yl)pyridine]: the MIC50 was 0.05 to 0.5 µM (≈ 0.0176 to 0.176 µg/mL).

Take `Cc1c(Cc2ccccc2)c(OC(C)C)nn1-c1ncccc1C#N` [example 89, 2-(4-benzyl-3-isopropoxy-5-methyl-1H-pyrazol-1-yl)nicotinonitrile]: the MIC50 fell in the range of 0.5 to 5 µM (≈ 0.166 to 1.66 µg/mL).

As for `CCOc1nn(-c2ccccn2)c(C)c1-c1cccc(Cl)c1` [example 156, 2-(4-(3-chlorophenyl)-3-ethoxy-5-methyl-1H-pyrazol-1-yl)pyridine], the MIC50 is greater than 5 µM.

`Cc1c(Oc2c(F)cccc2F)c(OC(C)C)nn1-c1ccc(C(C)(C)O)cn1` [example 84, 2-(6-(4-(2,6-difluorophenoxy)-3-isopropoxy-5-methyl-1H-pyrazol-1-yl)pyridin-3-yl)propan-2-ol]: the MIC50 lay in the range of 0.05 to 0.5 µM (≈ 0.0202 to 0.202 µg/mL).

For the molecule `CCOc1nn(-c2ccc(C3CC3)cn2)c(C)c1Oc1cc(Cl)cc(Cl)c1` [example 96, 5-cyclopropyl-2-(4-(3,5-dichlorophenoxy)-3-ethoxy-5-methyl-1H-pyrazol-1-yl)pyridine], the MIC50 was in the range of 0.05 to 0.5 µM (≈ 0.0202 to 0.202 µg/mL).

`CCc1cnc(-n2nc(OC(C)C)c(Oc3cccc(F)c3F)c2C)nc1` [example 77, 2-(4-(2,3-difluorophenoxy)-3-isopropoxy-5-methyl-1H-pyrazol-1-yl)-5-ethylpyrimidine] gave an MIC50 of 0.05 to 0.5 µM (≈ 0.0187 to 0.187 µg/mL).

`CCOc1nn(-c2ccccn2)cc1-c1ccc(Cl)cc1` [example 157, 2-(4-(4-chlorophenyl)-3-ethoxy-1H-pyrazol-1-yl)pyridine] returned an MIC50 greater than 5 µM.

Turning to `CCOc1cc(Cc2ccccc2)n(-c2ncc(CC)cn2)n1` [example 2, 2-(5-benzyl-3-ethoxy-1H-pyrazol-1-yl)-5-ethylpyrimidine], the MIC50 is greater than 5 µM.

Turning to `Cc1cnc(-n2nc(OC(C)C)c(Oc3c(F)cccc3F)c2C)nc1O` [example 116, 2-(4-(2,6-difluorophenoxy)-3-isopropoxy-5-methyl-1H-pyrazol-1-yl)-5-methylpyrimidin-4-ol], the MIC50 fell in the range of 0.05 to 0.5 µM (≈ 0.0188 to 0.188 µg/mL).

In the case of `COc1cnc(-n2nc(OC(C)C)c(Oc3c(F)cccc3F)c2C)cn1` [example 173, 2-(4-(2,6-difluorophenoxy)-3-isopropoxy-5-methyl-1H-pyrazol-1-yl)-5-methoxypyrazine], the MIC50 lay in the range of 0.5 to 5 µM (≈ 0.188 to 1.88 µg/mL).

`CCc1cnc(-n2nc(OC(C)C)c(Cc3ccc(OC)cc3)c2C)nc1` [example 111, 5-ethyl-2-(3-isopropoxy-4-(4-methoxybenzyl)-5-methyl-1H-pyrazol-1-yl)pyrimidine] registered an MIC50 of 0.05 to 0.5 µM (≈ 0.0183 to 0.183 µg/mL).

For `CCOc1nn(-c2ncc(CC)cn2)c(C)c1Oc1cc(Cl)ccc1Cl` [example 64, 2-(4-(2,5-dichlorophenoxy)-3-ethoxy-5-methyl-1H-pyrazol-1-yl)-5-ethylpyrimidine], the MIC50 was in the range of 0.0005 to 0.05 µM (≈ 0.000197 to 0.0197 µg/mL).

For `CCOc1nn(-c2ccc(C3CC3)cn2)c(C)c1Oc1ccc(C(F)(F)F)cc1` [example 94, 5-cyclopropyl-2-(3-ethoxy-5-methyl-4-(4-(trifluoromethyl)phenoxy)-1H-pyrazol-1-yl)pyridine], the MIC50 lay within 0.5 to 5 µM (≈ 0.202 to 2.02 µg/mL).

In turn, `CCOc1nn(-c2ccccc2)c(C)c1Cc1ccccc1` [example 134, 4-benzyl-3-ethoxy-5-methyl-1-phenyl-1H-pyrazole] yielded an MIC50 of 0.5 to 5 µM (≈ 0.146 to 1.46 µg/mL).

As for `CCc1cnc(-n2nc(OC(C)C)c(Oc3c(F)cccc3F)c2C)nc1O` [example 117, 2-(4-(2,6-difluorophenoxy)-3-isopropoxy-5-methyl-1H-pyrazol-1-yl)-5-ethylpyrimidin-4-ol], the MIC50 was 0.0005 to 0.05 µM (≈ 0.000195 to 0.0195 µg/mL).

The molecule `CCOc1nn(-c2ncc(CC)cn2)c(C)c1Oc1cccc(C(F)(F)F)c1` [example 57, 2-(3-ethoxy-5-methyl-4-(3-(trifluoromethyl)phenoxy)-1H-pyrazol-1-yl)-5-ethylpyrimidine] registered an MIC50 of 0.05 to 0.5 µM (≈ 0.0196 to 0.196 µg/mL).

Regarding `CCOc1nn(-c2ccccn2)c(C)c1-c1ccc(OC)cc1` [example 160, 2-(3-ethoxy-4-(4-methoxyphenyl)-5-methyl-1H-pyrazol-1-yl)pyridine], the MIC50 is greater than 5 µM.

Take `COc1cnc(-n2nc(OC(C)C)c(Oc3c(F)cccc3F)c2C)nc1` [example 62, 2-(4-(2,6-difluorophenoxy)-3-isopropoxy-5-methyl-1H-pyrazol-1-yl)-5-methoxypyrimidine]: the MIC50 is 0.0005 to 0.05 µM (≈ 0.000188 to 0.0188 µg/mL).

`COc1cc(C2CC2)cnc1-n1cc(Oc2ccccc2F)c(OC(C)C)n1` [example 185, 5-cyclopropyl-2-(4-(2-fluorophenoxy)-3-isopropoxy-1H-pyrazol-1-yl)-3-methoxypyridine] came in with an MIC50 of 0.05 to 0.5 µM (≈ 0.0192 to 0.192 µg/mL).

For the molecule `CCCc1cnc(-n2nc(OC(C)C)c(Oc3c(F)cccc3F)c2C)nc1O` [example 117A, 2-(4-(2,6-difluorophenoxy)-3-isopropoxy-5-methyl-1H-pyrazol-1-yl)-5-propylpyrimidin-4-ol], the MIC50 lay within 0.05 to 0.5 µM (≈ 0.0202 to 0.202 µg/mL).

Molecule `CCc1cnc(-n2nc(OC(C)C)c(Oc3ccc(F)cc3)c2C)nc1` [example 76, 5-ethyl-2-(4-(4-fluorophenoxy)-3-isopropoxy-5-methyl-1H-pyrazol-1-yl)pyrimidine] returned an MIC50 of 0.05 to 0.5 µM (≈ 0.0178 to 0.178 µg/mL).

The molecule `COc1nn(-c2ccc(C)cn2)c(C)c1Cc1ccccc1` [example 137, 2-(4-benzyl-3-methoxy-5-methyl-1H-pyrazol-1-yl)-5-methylpyridine] gave an MIC50 of 0.5 to 5 µM (≈ 0.147 to 1.47 µg/mL).

`Cc1c(Oc2ccccc2F)c(OC(C)C)nn1-c1ncc(C2CC2)cc1C#N` [example 52, 5-cyclopropyl-2-(4-(2-fluorophenoxy)-3-isopropoxy-5-methyl-1H-pyrazol-1-yl)nicotinonitrile] showed an MIC50 of 0.05 to 0.5 µM (≈ 0.0196 to 0.196 µg/mL).

`CCOc1nn(-c2ncc(C3CC3)cc2F)c(C)c1Cc1ccccc1` [example 35, 2-(4-benzyl-3-ethoxy-5-methyl-1H-pyrazol-1-yl)-5-cyclopropyl-3-fluoropyridine] registered an MIC50 of 0.05 to 0.5 µM (≈ 0.0176 to 0.176 µg/mL).

For the molecule `CCC(C)Oc1nn(-c2ncc(C3CC3)cn2)c(C)c1Cc1ccccc1` (stereo not shown) [example 142, 2-(4-benzyl-3-sec-butoxy-5-methyl-1H-pyrazol-1-yl)-5-cyclopropylpyrimidine], the MIC50 lay within 0.0005 to 0.05 µM (≈ 0.000181 to 0.0181 µg/mL).

Molecule `CCc1cnc(-n2nc(OCCOCc3ccccc3)c(Cc3ccccc3)c2C)nc1` [example 103, 2-(4-benzyl-3-(2-(benzyloxy)ethoxy)-5-methyl-1H-pyrazol-1-yl)-5-ethylpyrimidine] gave an MIC50 of 0.0005 to 0.05 µM (≈ 0.000214 to 0.0214 µg/mL).

In turn, `Cc1c(Oc2c(F)cccc2F)c(OC(C)C)nn1-c1cnc(C2CC2)nc1` [example 133, 2-cyclopropyl-5-(4-(2,6-difluorophenoxy)-3-isopropoxy-5-methyl-1H-pyrazol-1-yl)pyrimidine] yielded an MIC50 of 0.05 to 0.5 µM (≈ 0.0193 to 0.193 µg/mL).

As to `Cc1c(Oc2c(F)cccc2F)c(OC(C)C)nn1-c1ncc(C2CC2)cn1` [example 13, 5-cyclopropyl-2-(4-(2,6-difluorophenoxy)-3-isopropoxy-5-methyl-1H-pyrazol-1-yl)pyrimidine], the MIC50 fell in the range of 0.0005 to 0.05 µM (≈ 0.000193 to 0.0193 µg/mL).

For the molecule `CCOc1nn(-c2ccc(C3CC3)cn2)c(C)c1Oc1cccc(C(F)(F)F)c1` [example 93, 5-cyclopropyl-2-(3-ethoxy-5-methyl-4-(3-(trifluoromethyl)phenoxy)-1H-pyrazol-1-yl)pyridine], the MIC50 lay in the range of 0.05 to 0.5 µM (≈ 0.0202 to 0.202 µg/mL).

Molecule `CCOc1nn(-c2ccc(Cl)cn2)c(C)c1Cc1ccccc1` [example 39, 2-(4-benzyl-3-ethoxy-5-methyl-1H-pyrazol-1-yl)-5-chloropyridine] displayed an MIC50 of 0.5 to 5 µM (≈ 0.164 to 1.64 µg/mL).

In turn, `CCOc1nn(-c2ccc(C)cn2)c(C)c1Oc1ccccc1` [example 127, 2-(3-ethoxy-5-methyl-4-phenoxy-1H-pyrazol-1-yl)-5-methylpyridine] showed an MIC50 of 0.5 to 5 µM (≈ 0.155 to 1.55 µg/mL).

For the molecule `CCOc1nn(-c2ccc(C3CC3)cn2)c(C)c1Oc1ccccc1` [example 92, 5-cyclopropyl-2-(3-ethoxy-5-methyl-4-phenoxy-1H-pyrazol-1-yl)pyridine], the MIC50 fell in the range of 0.05 to 0.5 µM (≈ 0.0168 to 0.168 µg/mL).

`CCOc1nn(-c2cccc(C)n2)c(C)c1Cc1ccccc1` [example 33, 2-(4-benzyl-3-ethoxy-5-methyl-1H-pyrazol-1-yl)-6-methylpyridine] displayed an MIC50 greater than 5 µM.

The molecule `CCOc1nn(-c2ncc(CC)cn2)c(C)c1-c1ccc(OC)cc1` [example 161, 2-(3-ethoxy-4-(4-methoxyphenyl)-5-methyl-1H-pyrazol-1-yl)-5-ethylpyrimidine] registered an MIC50 of 0.5 to 5 µM (≈ 0.169 to 1.69 µg/mL).

The molecule `CCOc1nn(-c2ccc(C3CC3)cn2)c(C)c1Oc1ccccc1Cl` [example 63, 2-(4-(2-chlorophenoxy)-3-ethoxy-5-methyl-1H-pyrazol-1-yl)-5-cyclopropylpyridine] returned an MIC50 of 0.0005 to 0.05 µM (≈ 0.000185 to 0.0185 µg/mL).

`CCc1cnc(-n2[nH]c(=O)c(Cc3ccccc3)c2C)nc1` [example 135, 4-benzyl-1-(5-ethylpyrimidin-2-yl)-5-methyl-1H-pyrazol-3(2H)-one] registered an MIC50 of 0.5 to 5 µM (≈ 0.147 to 1.47 µg/mL).

Consider `CCOc1nn(-c2ccc(C(C)(F)F)cn2)c(C)c1Cc1ccccc1` [example 99, 2-(4-benzyl-3-ethoxy-5-methyl-1H-pyrazol-1-yl)-5-(1,1-difluoroethyl)pyridine], for which the MIC50 fell in the range of 0.5 to 5 µM (≈ 0.179 to 1.79 µg/mL).

With `CCOc1nn(-c2ncc(Br)cn2)c(C)c1Cc1ccccc1` [example 42, 2-(4-benzyl-3-ethoxy-5-methyl-1H-pyrazol-1-yl)-5-bromopyrimidine], the MIC50 fell in the range of 0.05 to 0.5 µM (≈ 0.0187 to 0.187 µg/mL).

On to `CC(C)Oc1nn(-c2ncc(C3CC3)cn2)cc1Sc1ccccc1` [example 104, 5-cyclopropyl-2-(3-isopropoxy-4-(phenylthio)-1H-pyrazol-1-yl)pyrimidine], for which the MIC50 lay within 0.0005 to 0.05 µM (≈ 0.000176 to 0.0176 µg/mL).

Regarding `COc1cc(C2CC2)cnc1-n1cc(Oc2ccccc2)c(OC(C)C)n1` [example 184, 5-cyclopropyl-2-(3-isopropoxy-4-phenoxy-1H-pyrazol-1-yl)-3-methoxypyridine], the MIC50 was 0.0005 to 0.05 µM (≈ 0.000183 to 0.0183 µg/mL).

`CCOc1nn(-c2ccc(C3CC3)cn2)c(C)c1Oc1ccccc1Br` [example 55, 2-(4-(2-bromophenoxy)-3-ethoxy-5-methyl-1H-pyrazol-1-yl)-5-cyclopropylpyridine] came in with an MIC50 of 0.0005 to 0.05 µM (≈ 0.000207 to 0.0207 µg/mL).

Take `CCc1nnc(-n2nc(OC(C)C)c(Oc3c(F)cccc3F)c2C)nc1O` [example 118, 3-(4-(2,6-difluorophenoxy)-3-isopropoxy-5-methyl-1H-pyrazol-1-yl)-6-ethyl-1,2,4-triazin-5-ol]: the MIC50 was 0.0005 to 0.05 µM (≈ 0.000196 to 0.0196 µg/mL).

The molecule `CCOc1nn(-c2ccccn2)c2c1CCN(Cc1ccccc1)C2` [example 1, 6-benzyl-3-ethoxy-1-(pyridin-2-yl)-4,5,6,7-tetrahydro-1H-pyrazolo[3,4-c]pyridine] yielded an MIC50 greater than 5 µM.
